Results: patent publication US5843916A, “Cyclic amp analogues, individually and in pairs, to inhibit neoplastic cell growth” (priority 1994, dated 1998)
pIC50: −log10 of the molar value. Where two headings read alike, the source gives them in different places.

Columns and labels:
cells = test: Growth inhibition by 8-Cl-AMP; format: cell-based; settings: as high as 100 μM
[1] = system: c-myc protein, Molt-4 leukemic cells; test: Western blotting of c-myc protein (FIG. 9B); format: cell-based, human; settings: three days; 8-Cl-cAMP 5 μM, DBcAMP 1 mM, 8-Cl-adenosine 5 μM
Procedure: The cells were grown in suspension culture in RPMI 1640 medium supplemented with 10% fetal bovine serum, penicillin (50 U/ml), streptomycin (500 μg/mL), 10 mM HEPES buffer, and extra glutamine. […] Surface antigen analysis of HL-60 cells was performed by flow cytometry using a panel of monoclonal antibodies reactive with either myeloid cells or monocytic cells. Terminal deoxynucleotidyl transferase (TdT) was assayed by an immunoperoxidase method using a TdT fluorescence kit. Western blotting of c-myc protein was performed using c-myc antibody 15206D11 (Scripps Clinic and Research Foundation, LaJolla, Calif.).
M, marker proteins of known molecular weight. […] The resulting supernatants were used as cell lysates. […] ND=nondetectable.

MCF-7 = test: Growth of MCF-7 cells (Tables 3, 11); format: cell-based; settings: Homo sapiens, MCF7, 72 h, Table 11; 8-Cl-cAMP 10 μM, 8-Cl-adenosine 5 μM, DBcAMP 500 μM; control 100
Procedure: (§1) All breast cancer cell lines were grown in IMEM supplemented with 10% fetal bovine serum, HEPES 20 mM, penicillin-streptomycin, and extra glutamine. Colon carcinoma cell lines were grown in EMEM supplemented with 10% FBS, EMEM, NEAA, HEPES 20 mM, extra glutamine, and penicillin-streptomycin. The cells were grown at 37° C. in humidified incubators in an atmosphere of 5% CO2.
(§2) For cell growth experiments, 2-3×10^5 cells/60 mm dish were seeded, and 24 hours later (Day 0), the medium was removed, and fresh medium and the additives were added then and every 48 hours thereafter. The compounds of the present invention were added using 100X concentrated stock solutions. At desired times, cell counts in duplicate were performed on a Coulter counter after harvesting the cells with gentle trypsinization.

[2] = system: RI cAMP receptor protein, Molt-4 leukemic cells; test: Photoaffinity labelling of RI cAMP receptor protein (FIG. 9A); format: cell-based, human; settings: three days; 8-Cl-cAMP 5 μM, DBcAMP 1 mM, 8-Cl-adenosine 5 μM
[3] = system: LS-174T colon cancer line; test: Growth and release from growth inhibition (FIG. 3); format: cell-based, human; settings: 5 μM
Procedure: 1×10^5 cells/60 mm dish were seeded, and 24 hours later (Day 0), the medium was removed and fresh medium and additives were added then and every 48 hours thereafter. […] The triplicate cell count for each experimental point never varied by more than 10%.

[4] = system: p21 ras protein, MCF-7 cells; test: Western blotting of p21 ras protein (Table 11, FIG. 7); format: cell-based, human
Procedure: Western blotting of p21 protein was performed as described below. […] V is cell lysate from Ha-MuSV-transformed NIH3T3 clone 13-3B-4. M, marker proteins of known molecular weight.
Each lane contained 100 micrograms of protein for SDS-PAGE.
Cellular proteins present in cell extracts were separated by 12% SDS-PAGE and transferred to nitrocellulose sheets in transfer buffer (25 mM Tris, 192 mM glycine, 20% methanol, pH 7.4). Nitrocellulose sheets were washed and first incubated with 3% bovine serum albumin in NTE-NP40 (50 mM Tris-HCl, pH 7.5, 150 mM NaCl, 2 mM EDTA, 0.1% Nonidet P-40) for three hours at 37° C. and then sequentially incubated with medium containing p21 monoclonal antiserum Y13-259 directed against the Ha-MuSV-encoded p21 for sixteen hours at 4° C., rabbit anti-rat IgG for 2.5 hours in an ice water bath, and 5×10^5 cpm/ml ^125 I-protein A for one hour in an ice water bath. The nitrocellulose sheets were air dried and exposed to Kodak XAR film for 12-36 hours at -20° C. Comparison of the resulting autoradiograms with others in which normal rat serum was substituted for p21 monoclonal antibody permitted identification of p21. To provide a reference p21, cell lysates were prepared from NIH 3T3 clone 13-3B-4 that had been transfected with HaMuSV DNA.
The levels of p21 protein are expressed relative to the p21 level in the untreated control cells which is set equal to 1.0 O.D.

LS-174T = test: Cell cycle analysis by flow cytometry (Table 3); format: cell-based, human; settings: 5 μM; 3 days
Procedure: (§3) DNA histograms were generated on FACS II by using the DNA intercalating dye propidium iodide as described by Braylan et al. in Cytometry 2: 337-343, 1982. The percentage of cells in each cycle phase was calculated by using a PDP-11/34 computer and software as described by Neckers et al., Mol. Cell. Biol. 6: 4244-4250, 1986.
(§4) Breast (MCF-7, MDA-MB-231) and colon (LS-174T) cancer cells in log
(§5) phase (untreated control) and 3 days after treatment with 8-C1-cAMP
(§6) (10 μM), N^6 -benzyl-cAMP (35 μM), and 8-Cl-adenosine (5
(§7) were analyzed for DNA content by flow cytometric analysis as described
(§8) below. Similar results were obtained with other breast and colon cancer
^a The paired numbers were derived from two separate experiments.

[5] = system: breast (MCF-7) and colon (LS-174T) cancer cell lines; test: Growth inhibition of breast and colon cancer cells (Table 1); format: cell-based, human; settings: Homo sapiens
Procedure: The compounds of the present invention were added using 100X concentrated stock solutions. At desired times, cell counts in duplicate were performed on a Coulter counter after harvesting the cells with gentle trypsinization. […] Cell counts were performed on each of three or more separate experiments, and the average values are expressed as percent growth inhibition as compared with untreated control cells. | ^a The values of percentage growth inhibition were determined from th | doseresponse curve experiments. Each value represents an average value an | range (in parentheses) obtained from three or more separate experiments. | The cell counts in duplicate were performed at day 3 and day 4 after two | treatments (day 0 and day 2) with analogs (seeding on day -1).

MDA-MB-231 [6] = test: Cell cycle analysis by flow cytometry (Table 3); format: cell-based, human; settings: 35 μM; 3 days
Procedure: as §3, §4, §5, §6, §7, §8

[7] = system: breast and colon cancer lines (MCF-7, T-47D, ZR-75-1, MCF-7ras, MDA-MB-231, BT-20, HBL-100, LS-174T, WiDr, HT-29); test: Growth inhibition of breast and colon cancer lines (FIG. 1); format: cell-based, human; settings: densitometry text
myc-K562 = test: Growth inhibition of leukemic cells (Table 12); format: cell-based; settings: Homo sapiens
[8] = system: RI and RII cAMP receptor proteins, LS-174T; test: Photoaffinity labelling of cAMP receptor proteins (Table 10, FIG. 6); format: cell-based, human; settings: 3 days, 8-Cl and N^6-benzyl 10 μM, dibutyryl 1 mM
Procedure: (§9) Photoactivated incorporation of 8-N3 [^32 P] was performed as described below.
(§10) M is marker proteins of known molecular weight.
(§11) Each lane contained 50 micrograms protein for SDS-PAGE.
(§12) The incubations were carried out at 23° C. for 60 minutes in 96-well immunoplates. The reaction mixtures were then irradiated for 30 seconds at 254 nm, placing a Mineralite UVS-11 hand lamp directly onto the plate. The samples were mixed with 25 microliters of 3× sample buffer (3% SDS, 15% beta-mercaptoethanol, 30 mM Tris, 30% glycerol, 1% bromophenol blue saturated solution), boiled for 3 minutes, and centrifuged at 700 × g for five minutes. The samples containing 10-30 micrograms of protein were subjected to 0.05% SDS-12% PAGE. The gels were fixed, dried, and exposed to X-ray films overnight. The protein concentrations were determined by the method of Lowry et al., J. Biol. Chem. 193: 265-275, 1951, with bovine serum albumin as standard.
(§13) The levels of the receptor proteins are expressed relative to the RI level in the untreated control cells of MDA-MB-231 and LS-174T which are each set equal to 1.0 O.D.; the scale was expanded to differentiate the lower intensity bands.

[9] = system: RI and RII cAMP receptor proteins, MDA-MB-231; test: as above; format: cell-based, human; settings: 3 days, 8-Cl and N^6-benzyl 10 μM, dibutyryl 1 mM
Procedure: as §9, §10, §11, §12, §13

HL-60 Cells = test: Cell cycle kinetics of HL-60 cells (Table 17); format: cell-based, human; settings: 10 μM, 96 hours
Procedure: Briefly, cells were fixed in 70% ethanol and stored at 4° C. before analysis. Nuclear DNA was stained with propidium iodide, 50 μg/ml in phosphate-buffered saline (pH 7.4), for 30 minutes at room temperature. RNase was added to avoid double-helix RNA staining. The DNA content of cells was analyzed by a FACScan flow cytometer coupled with a Hewlett-Packard computer. Cell cycle data analysis was performed by a Cell-FIT program according to the method of Dean (Cell Tissue Kinet. 13: 299-308 (1980)) (Becton Dickinson Immunocytometry Systems). Pulse area versus pulse width gating was performed to exclude doublets from the G2 -M region. For each sample, 20,000 events were stored in list mode. Cell surface antigen analysis was performed by flow cytometry with FACScan using a panel of monoclonal antibodies reactive with either monocytic or myeloid cells.

K-562 = test: Growth inhibition of leukemic cells (Table 12); format: cell-based; settings: Homo sapiens, K562
[10] = system: RI and RII cAMP receptor proteins, breast (MDA-MB-231) and colon (LS-174T) cancer cells; test: cAMP receptor protein levels, breast and colon cancer cells (FIG. 6); format: cell-based, human
Procedure: as §9, §10
The incubations were carried out at 23° C. for 60 minutes in 96-well immunoplates. […] The gels were fixed, dried, and exposed to X-ray films overnight.

HL-60 = test: Growth inhibition of leukemic cells (Table 12); format: cell-based; settings: Homo sapiens
[11] = system: four leukemic cell lines (HL-60, K-562, myc-K562, Molt-4); test: Growth inhibition of leukemic cell lines; format: cell-based, human; settings: Homo sapiens; leukemic cell lines, range
[12] = system: breast and colon cancer cells; test: Effect on cell morphology (FIG. 2); format: cell-based, human
Text: The photographs were taken on Day 4, ×160.
Furthermore, the synergistic growth inhibitory effect of C-6 and C-8 analogue combinations was also reflected in the change in the cell morphology.

Molt-4 = test: Growth inhibition of leukemic cells (Table 12); format: cell-based, human; settings: Homo sapiens, MOLT-4; read-out: Inhibition of Growth IC50, Molt-4
MDA-MB-231 [13] = test: Growth of MDA-MB-231 cells (Tables 3, 10); format: cell-based; settings: Homo sapiens, MDA-MB-231, 72 h, 3 days, control 100 (Table 3)
Procedure: as §1, §2

## Nc1ncnc2c1nc(Cl)n2[C@@H]1O[C@H](COP(=O)(O)O)[C@@H](O)[C@H]1O [8-Cl-AMP]
cells
  growth inhibition: no appreciable growth inhibition

## Nc1ncnc2c1nc(Cl)n2[C@@H]1O[C@H](CO)[C@@H](O)[C@H]1O [8-Cl-adenosine]
[1]
  c-myc protein level: not observed
MCF-7
  activity at 5 µM: 38%
[2]
  RI receptor protein level: not observed
[3]
  cell growth after release from treatment: did not resume their growth up to two weeks after the release from the treatment
  cell growth during treatment: marked reduction in cell growth and eventually stopped replicating within three to four days
[4]; 3 days, 8-Cl-cAMP 10 μM, 8-Cl-adenosine 5 μM, DBcAMP 500 μM, control = 1.0 O.D.
  p21 (Relative Level): 1.0 ± 0.1
[4]; three days
  p21 level: did not appreciably affect the p21 level
LS-174T
  cell cycle phase distribution: appreciable increase of the cell population in G1 phase with a marked reduction in S-phase

## O=P1(O)OC[C@H]2O[C@@H](n3cnc4c(NCc5ccccc5)ncnc43)[C@H](O)[C@@H]2O1 [N^6 -benzyl-cAMP]
[5]; 72 h, 50 μM, day 3, average (range), read-out: % Growth Inhibition, Day 3
  inhibition at 50 µM: 56%
[5]; 96 h, 50 μM, day 4, average (range), read-out: % Growth Inhibition, Day 4
  inhibition at 50 µM: 70%
[5]; 50 micromolar, read-out: growth inhibition
  inhibition at 50 µM: 30 to 70%
MDA-MB-231 [6]
  % Cell Population in G1: 60%
  % Cell Population in G2M: 15%
  % Cell Population in S: 25%
  cell cycle phase distribution: not appreciably different
[7]
  growth inhibition of cancer lines: 45-70%
myc-K562
  pIC50: 4.52
[8]
  RII/RI: 1.25
[8]; control RI = 1.0 O.D.
  relative level of RI: 0.20 ± 0.02
  relative level of RII: 0.25 ± 0.02
[9]
  RII/RI: 0.28
[9]; control RI = 1.0 O.D.
  relative level of RI: 0.25 ± 0.03
  relative level of RII: 0.07 ± 0.01
HL-60 Cells; control 8.3
  % G2 M: 9.6%
HL-60 Cells; control 45.7
  % G0-G1: 44.4%
HL-60 Cells; control 46
  % S: 46%
K-562
  pIC50: 4.57
[10]; densitometric tracings
  decrease in the RI level: 70-80%
  increase in the ratio of RII to RI: two- to three-fold increase
[10]; three days, FIG. 6
  RI and RII receptor levels: the cAMP receptor protein with a molecular weight of 52,000 increased appreciably with concomitant decrease of the 48,000 RI receptor protein
HL-60
  pIC50: 4.70
[11]
  pIC50: 4.52 to 5.00
[12]; 0.5 μM alone, four days
  cell morphology: did not induce a change in the cell morphology
[12]; 50 μM, three to four days
  cell morphology: induced the morphological change
Molt-4
  pIC50: 5.00
MDA-MB-231 [13]
  activity at 35 µM: 45%
